Test results taken from patent publication US20130281409A1, “Myelin Sheath Fatty Acids that Resolve Neuroinflammation” (priority 2012, published 2013).
“Also recorded” adds a separate entry of the source.

What was measured:
[1] = system: splenocytes from PLP139-151-immunized SJL mice; test: PLP139-151-induced proliferation of splenocytes of PLP139-151-immunized mice; assay type: cell-based, mouse; settings: 30 μg/ml lipid, 48 hours
Experimental: PLP-stimulated cells from PLP139-151-immunized mice administered PGPC prophylactically: SJL/J mice were co-injected with PGPC and PLP139-151 in CFA and sacrificed 48 days later. Lymph node cells and splenocytes were then harvested and re-stimulated in vitro (2.5×10^6 cells/ml) with 10 μg/ml of PLP139-151 or with media alone. PLP-stimulated cells from untreated PLP139-151-immunized mice: SJL/J mice were immunized with PLP139-151 in CFA and sacrificed 10 days later. Splenocytes were then harvested and re-stimulated in vitro (at 5×10^5 cells/ml) with 10 μg/ml of PLP139-151 in the presence of 30 μg/ml of POPS, PGPC, azPC ester, or azPC.

[2] = system: lymph node cells and splenocytes; test: PLP139-151-induced cytokine secretion by cells from PGPC-treated EAE mice; assay type: in vivo, mouse
Experimental: PLP-stimulated cells from PLP139-151-immunized mice administered PGPC prophylactically: SJL/J mice were co-injected with PGPC and PLP139-151 in CFA and sacrificed 48 days later. Lymph node cells and splenocytes were then harvested and re-stimulated in vitro (2.5×10^6 cells/ml) with 10 μg/ml of PLP139-151 or with media alone. PLP-stimulated cells from untreated PLP139-151-immunized mice: SJL/J mice were immunized with PLP139-151 in CFA and sacrificed 10 days later. Splenocytes were then harvested and re-stimulated in vitro (at 5×10^5 cells/ml) with 10 μg/ml of PLP139-151 in the presence of 30 μg/ml of POPS, PGPC, azPC ester, or azPC. Cytokine production by cells from the lymph nodes and spleens of PGPC co-immunized mice was measured after 66 hours of stimulation by using the BD OptEIA™ Mouse IFN-γ ELISA kit (BD Biosciences). Cytokine assays for the anti-CD3/anti-CD28 antibody-stimulated T cells and PLP139-151-stimulated splenocytes were performed on culture supernatants after 48 hours of stimulation using the BD OptEIA™ Mouse IL-6, IFN-γ, and TNF alpha ELISA kits (BD Biosciences) and the Mouse IL-17 DuoSet ELISA Development kit (R&D Systems).

CD3+ T cells = test: Proliferation of anti-CD3/anti-CD28-stimulated purified T cells; assay type: cell-based, mouse; settings: anti-CD3 or anti-CD3 and anti-CD28, 30 μg/ml lipid, 48 hours
Experimental: Splenocytes were harvested from mice transgenic for the MBPAc1-11-specific T-cell receptor and stimulated with 2 μg/ml of MBPAc1-11 in the presence of 30 μg/ml of lipid. Lymph nodes and spleens were also harvested from naive C57BL/6 mice, and CD3^+ T-cell enrichment columns (R&D systems) were used to isolate CD3^+ T cells. […] Cytokine assays were performed on culture supernatants after 24 (IL-12p40) or 48 hours (IFN-γ, IL-6, and TNF) of culture by using the BD OptEIA™ Mouse ELISA kits (BD Biosciences). Cd1d^−/− T cells: We harvested splenocytes from Cd1d^−/− mice and their wild-type littermates and used CD3^+ T-cell enrichment columns (R&D systems) to isolate T cells. […] Anti-CD3/anti-CD28-stimulated purified T cells: We harvested lymph nodes and spleens from naive C57BL/6 mice and used CD3^+ T-cell enrichment columns (R&D systems) to isolate CD3^+ T cells.

[3] = system: NF-κB and ERK pathways, Bcl-2 family proteins; test: Immunoblot of inflammatory, survival and apoptotic signaling in anti-CD3/anti-CD28-stimulated T cells; assay type: cell-based, mouse; settings: 30 μg/ml lipid, 15 min or 24 h
Experimental: CD3^+ T cells were isolated from the lymph nodes of naïve C57BL/6 mice by using CD3^+ T-cell enrichment columns (R&D systems). […] Cells were washed with ice-cold PBS and lysed in RIPA lysis buffer containing 1X Halt protease and phosphatase inhibitor cocktail (Pierce) with a Dounce homogenizer. Immunoblotting was performed with antibodies against phospho-Bim ([…]), phospho-Bad ([…]), phospho-Bcl-2 ([…]), phospho-IKKα/β (serines 180/181), phospho-p65 ([…]), phospho-ERK1/2 […]), and IκBα from Cell Signaling Technology.

[4] = system: CD3+ T cells (gated on CD4+ T cells); test: T-cell apoptosis, Annexin V and 7AAD staining; assay type: cell-based, mouse; settings: 30 μg/ml lipid, anti-CD3 and anti-CD28, 48 hours
Experimental: FIG. 5. […] (C) TUNEL staining of brain and spinal-cord tissue from mice immunized with PLP139-151 peptide (to induce EAE) and treated for 12 h with azPC, POPS, or vehicle on day 15 after immunization. […] (D) Quantification of TUNEL-positive infiltrating cells in brain and spinal cord shown in panel (C). Cells were stained according to standard protocols, run on a FACScan flow cytometer (BD Biosciences), and analysed with CellQuest software (BD Immunocytometry Systems). The antibody conjugate used was FITC anti-CD4, clone GK1.5 (BD Pharmingen). 7AAD staining was performed by using the Annexin V-PE Apoptosis Detection Kit I (BD Pharmingen). Cells were stained according to standard protocols, run on a FACScan flow cytometer (BD Biosciences), and analysed with CellQuest software (BD Immunocytometry Systems) or with FlowJo software version 6.3.2 (Tree Star, Inc.).

B cells = test: Proliferation of anti-IgM F(ab')2/anti-CD40-stimulated purified B cells; assay type: cell-based, mouse; settings: 30 μg/ml lipid, anti-IgM F(ab')2 and anti-CD40, 48 hours
Experimental: Anti-IgM F(ab′)2 fragment/anti-CD40-stimulated purified B cells: We harvested spleens from naive C57BL/6 mice and used a B-cell isolation kit (Miltenyi Biotec) to negatively isolate B cells. We then stimulated 5×10^5 cells/ml of B cells with 5 μg/ml of each of soluble anti-IgM F(ab′)2 fragment (Jackson ImmunoResearch) antibody and anti-CD40 antibody (eBioscience) in the presence of 30 μg/ml of POPS, PGPC, azPC ester, or azPC.

[5] = system: infiltrating cells in brain and spinal cord of mice with EAE; test: TUNEL assay on brain and spinal cord of EAE mice; assay type: in vivo, mouse; settings: 200 μg i.v. on day 15 after immunization
Experimental: Mice with EAE were treated intravenously with 200 μg of azPC, 200 μg of POPS, or vehicle (0.05% Tween-20 in PBS) on day 15 after immunization with CFA and PLP139-151 peptide. Mice were treated with lipids for 12, 24, or 48 hours and then sacrificed and perfused with 4% paraformaldehyde. Brains and spinal cords were embedded in paraffin and sectioned. TUNEL-positive cells were detected by using the In Situ Cell Death Kit, AP (Roche) according to the manufacturer's instructions.

CCCCCCCCCCCCCCCC(=O)OC[C@H](COP(=O)([O-])OCC[N+](C)(C)C)OC(=O)CCCC(=O)O [PGPC, 1-Palmitoyl-2-Glutaroyl-sn-Glycero-3-Phosphocholine]
PLP139-151-induced proliferation of splenocytes [1]: suppress
IFN-γ secretion upon PLP139-151 stimulation ([2]; cells from PGPC-treated vs vehicle-treated EAE mice): secreted less IFN; also recorded: lower levels
TNF secretion upon PLP139-151 stimulation ([2]; splenocytes from PGPC-treated vs vehicle-treated EAE mice): lower levels
T-cell proliferation, wild-type and Cd1d−/− T cells (CD3+ T cells): suppress T-cell proliferation independently of CD1d
CD3/CD28-induced activation of the NF-κB and ERK pathways [3]: suppressed the CD3/CD28-induced activation
CD3/CD28-induced phosphorylation of Bim (serine 69) and Bad (serine 112) [3]: suppressed the CD3/CD28-induced phosphorylation

CCCCCCCC/C=C\CCCCCCCC(=O)O[C@H](COC(=O)CCCCCCCCCCCCCCC)COP(=O)(O)OC[C@H](N)C(=O)O [POPS, 1-Palmitoyl-2-Oleoyl-sn-Glycero-3-[Phospho-L-Serine]]
PLP139-151-induced proliferation of splenocytes [1]: suppress
increase in T-cell apoptosis [4]: > 5 fold
proliferation of activated B cells (B cells): modestly suppressed proliferation
T-cell proliferation, wild-type and Cd1d−/− T cells (CD3+ T cells): suppress T-cell proliferation independently of CD1d
CD3/CD28-induced activation of the NF-κB and ERK pathways [3]: suppressed the CD3/CD28-induced activation
CD3/CD28-induced phosphorylation of Bim (serine 69) and Bad (serine 112) [3]: suppressed the CD3/CD28-induced phosphorylation
number of TUNEL-positive cells with lymphocyte morphology in brain and spinal cord [5]: increased the number of TUNEL-positive cells

CCCCCCCCCCCCCCCC(=O)OC[C@H](COP(=O)([O-])OCC[N+](C)(C)C)OC(=O)CCCCCCCC(=O)O [azPC, 1-Palmitoyl-2-Azelaoyl-sn-Glycero-3-Phosphocholine]
PLP139-151-induced proliferation of splenocytes [1]: suppress
increase in T-cell apoptosis [4]: > 4 fold
proliferation of activated B cells (B cells): modestly suppressed proliferation
T-cell proliferation, wild-type and Cd1d−/− T cells (CD3+ T cells): suppress T-cell proliferation independently of CD1d
CD3/CD28-induced activation of the NF-κB and ERK pathways [3]: suppressed the CD3/CD28-induced activation
CD3/CD28-induced phosphorylation of Bim (serine 69) and Bad (serine 112) [3]: suppressed the CD3/CD28-induced phosphorylation
number of TUNEL-positive cells with lymphocyte morphology in brain and spinal cord [5]: increased the number of TUNEL-positive cells
